Literature values in patent US7208484B2, “Method of synthesizing 1alpha-hydroxy-2-methylene-19-nor-homopregnacalciferol” (Wisconsin Alumni Research Foundation, priority 2002, dated 2007).

Key:
[1] = in vivo
vitamin D receptors = biological target: T1, vitamin D receptors (Homo sapiens, UniProt P11473); settings: compared with 1α,25-dihydroxyvitamin D3
T1 sequence (P11473 1-427): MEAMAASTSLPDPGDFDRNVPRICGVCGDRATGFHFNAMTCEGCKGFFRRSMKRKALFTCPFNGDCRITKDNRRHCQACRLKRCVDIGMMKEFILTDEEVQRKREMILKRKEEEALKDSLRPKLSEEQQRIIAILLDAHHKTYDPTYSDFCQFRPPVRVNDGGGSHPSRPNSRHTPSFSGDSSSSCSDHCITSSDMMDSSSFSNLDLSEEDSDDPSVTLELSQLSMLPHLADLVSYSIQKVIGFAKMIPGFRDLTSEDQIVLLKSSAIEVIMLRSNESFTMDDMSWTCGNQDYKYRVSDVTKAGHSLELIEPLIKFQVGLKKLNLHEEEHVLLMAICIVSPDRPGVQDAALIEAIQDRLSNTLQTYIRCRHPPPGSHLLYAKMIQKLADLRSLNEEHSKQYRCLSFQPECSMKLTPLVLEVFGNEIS

C=C1C(=CC=C2CCCC3(C)C2CCC3C(C)C)CC(O)CC1O (stereo not drawn) [1α-hydroxy-20-methyl-pregnacalciferol]
calcemic activity [1]: essentially devoid of calcemic activity
HL-60 cell differentiation ability (HL-60 cell): some HL-60 cell differentiation ability
binding to the receptor (vitamin D receptors): comparable binding to the receptor as 1α,25-dihydroxyvitamin D3
